Results on six compounds are retold here after patent publication US20140127194A1, “COMBINED PHARMACEUTICAL COMPOSITIONS FOR THE TREATMENT OF TUMORS” (HYD Rákkutató és Gyógyszerfejlesztö Kft., priority 2011, published 2014).

The subject of test [1] is chronic myeloid leukemia (CML). Briefly: Case report: chronic myeloid leukemia patient, DDW with Litaril, then STI 571 (Gleevec). In kind it is in vivo, human. As to the method: b/ In a young patient in 1998, chronic myeloid leukemia (CML) was diagnosed, and was medicated with Litaril because of high WBC count. […] In February 2001 the patient was enrolled in the clinical trial of the drug candidate STI 571 (Gleevec). By August 2001, bone marrow damage decreased to 66% from the previous 80%.
(§1) DdU units used in the treatment were determined as described in Example 1 and 2.

The subject of test [2] is HT199 melanoma cell line. Briefly: In vitro growth of melanoma cells with DDW, doxorubicin and their combination. In kind it is cell-based. Particulars: 450 and 900 nM in normal (150 ppm D) medium. The protocol:
Curves 4 and 6 show the inhibition by DDW plus the mentioned two concentrations of doxorubicin.
In the experiment, the effect of DDW, doxorubicin, and their combination was tested on HT199 melanoma cell line.

Test [3] concerns prostate cancer with bone metastasis. Briefly: Prostate cancer case reports: PSA tumor marker and remission versus DDW consumption. In kind it is in vivo, human. Particulars: patient, PSA over 1000 ng/mL, before start of DDW. As to the method: FIG. 1: Data of a patient with prostate cancer and bone metastasis, with extremely high PSA level (1000 ng/mL). Beside conventional treatment, DDW was also applied. In spite of the potentially bad prognosis the patient remained in regression for 9 years. PSA level: left Y axis and broken line; DDW dose: right Y axis and solid line.
FIG. 2: patient with prostate cancer and extreme PSA levels. […] Interrupting the DDW cure caused increasing PSA levels, and after finishing DDW consumption in December 2009 PSA was soaring. Broken line: PSA level, solid line: DDW dose.
Patient 2 (FIG. 1) had bone metastasis in the early phase of the disease, PSA was over 1000 ng/mL. […] They started consuming DDW in April 2003, 640 days (=21.3 months) after diagnosing bone metastasis with 15.0 ng/mL PSA. They consumed DDW for nearly one year at DdU of 1.0. A break of 6 months followed this cure, during which the disease progressed and PSA increased from 1 to 4.34 ng/mL. A new DDW cure brought regression and PSA below 1 ng/mL. 4 years after diagnosis, Androcure was replaced with Suprefact. Further DDW treatments (see FIG. 1 for DdU values) PSA was decreased in the following 3 years and the patient had no complaints in spite of the existing bone metastasis and the generally bad prognosis. […]

Test [4] has as its system kidney tumor. Briefly: Case report: kidney tumor patient, Sutent with and without DDW. In kind it is in vivo, human. As to the method: c/ With another tyrosine kinase inhibiting agent, Sutent, a similar positive interaction was found. In one patient, kidney tumor was diagnosed in spring 2003 and was surgically removed. Up to spring 2006, three further operations were necessary because of the disease recidivating.
as §1

Test [5] has as its system breast cancer. Particulars: Taxotere without DDW, general experience; cited from earlier work.

As for `Cc1ccc(NC(=O)c2ccc(CN3CCN(C)CC3)cc2)cc1Nc1nccc(-c2cccnc2)n1` [STI 571], the disease status entry in test [1] (one CML patient consuming DDW and on STI 571, April 2002) is “fully negative”. In test [1] (one CML patient consuming DDW, STI 571 from February 2001, by August 2001, previously 80%), this compound had a bone marrow damage of 66%.
Take `COc1cccc2c1C(=O)c1c(O)c3c(c(O)c1C2=O)C[C@@](O)(C(=O)CO)C[C@@H]3O[C@H]1C[C@H](N)[C@H](O)[C@H](C)O1` [doxorubicin]: the “effect on growth of melanoma cells” value in test [2] was “inhibitory effect”.
Turning to `CC(=O)O[C@]1(C(C)=O)CC[C@H]2[C@@H]3C=C(Cl)C4=CC(=O)[C@@H]5C[C@@H]5[C@]4(C)[C@H]3CC[C@@]21C` [Androcure], the PSA change entry in test [3] is “PSA was rapidly lowered”.
For `CCN(CC)CCNC(=O)c1c(C)[nH]c(/C=C2\C(=O)Nc3ccc(F)cc32)c1C` [Sutent], the tumor response entry in test [4] (one kidney tumor patient, Sutent without DDW, progression again in March 2007) is given as “efficient initially”; in test [4] (same patient, DDW in parallel with Sutent from autumn 2007), “the tumors shrank again”. Also, in test [4] (same patient, DDW in parallel with Sutent, three years later), the “tumor response on images” value was “ongoing decrease of the tumor sizes”.
With `CC(=O)O[C@@]12CO[C@@H]1C[C@H](O)[C@@]1(C)C(=O)[C@H](O)C3=C(C)[C@@H](OC(=O)[C@H](O)[C@@H](NC(=O)OC(C)(C)C)c4ccccc4)C[C@@](O)([C@@H](OC(=O)c4ccccc4)[C@H]21)C3(C)C` [Taxotere, docetaxel], in test [5], the MST is listed as 20-22 months.
As to `C[C@]12CC[C@@H]3c4ccc(OC(=O)N(CCCl)CCCl)cc4CC[C@H]3[C@@H]1CC[C@@H]2OP(=O)(O)O` [Estracyt], the PSA change result in test [3] is reported as “PSA was rapidly lowered”.
